Experiments:
[1] = Highest frequency of acute liver toxicity observed during clinical trials, expressed as a percentage. [column '% AIGUE' in source]; details: human
[2] = human
[3] = human; remark: listed apart in the source
[4] = human; remark: listed apart in the source
[5] = human; remark: listed apart in the source
[6] = human; remark: listed apart in the source
[7] = human, serum
[8] = human; remark: listed apart in the source
[9] = human; remark: listed apart in the source
[10] = human, serum; remark: listed apart in the source
[11] = human; remark: listed apart in the source
[12] = human, serum, 4383 h
[13] = human; remark: listed apart in the source
[14] = Highest frequency of moderate liver toxicity observed during clinical trials, expressed as a percentage. [column '% BIOL' in source]; details: human
[15] = Presence of at least one case with successful reintroduction. [column 'REINT' in source]; details: human
[16] = Proposed mechanism(s) of liver damage. [column 'MEC' in source]; details: human
[17] = Comments (NB not yet translated). [column 'COMMENTAIRES' in source]; details: human
[18] = Times to onset, minimal and maximal, observed in the indexed observations. [column 'DELAI' in source]; details: human
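Wherever Hepatotoxicity (association with vascular disease) is given: count of indexed literature references reporting vascular liver injury in humans, e.g. peliosis hepatitis, hepatic veno-occlusive disease or Budd-Chiari syndrome.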
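Wherever Hepatotoxicity (benign tumour) is given: value is a count of indexed literature references citing a benign tumour confirmed by histopathology.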
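Wherever Hepatotoxicity (choleostasis) is given: human cholestatic liver injury, shown by histopathology or by peak ALT or AST elevation over alkaline phosphatase ratio below 2, value counts indexed literature reports.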
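Wherever Hepatotoxicity (chronic liver disease) is given: chronic liver injury confirmed by histopathology or persistently raised serum aminotransferase activity beyond 6 months, value given as the count of indexed literature references.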
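Wherever Hepatotoxicity (cirrhosis) is given: value is a count of indexed literature references reporting cirrhosis confirmed by histopathology.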
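Wherever Hepatotoxicity (cytolytic) is given: human cytolytic liver injury, shown by histopathology or by a ratio above 5 of peak ALT or AST elevation to alkaline phosphatase elevation, value counts indexed references.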
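Wherever Hepatotoxicity (granulomatous hepatitis) is given: value is a count of indexed literature references reporting granulomatous liver disease confirmed by histopathology.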
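Wherever Hepatotoxicity (malignant tumour) is given: malignant tumour confirmed by histopathology, value gives the count of indexed literature references reporting it.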
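Wherever Hepatotoxicity (severe hepatitis) is given: human clinical data: severe hepatitis, meaning potentially life-threatening liver failure or clinically observed cases, the value counts how many indexed literature references report it.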
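Wherever Hepatotoxicity (steatosis) is given: steatosis confirmed by histopathology, value is the count of indexed references.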

Row | Compound | Hepatotoxicity (acute) [1] | Hepatotoxicity (cirrhosis) [2] | Hepatotoxicity (cytolytic) [3] | Hepatotoxicity (severe hepatitis) [4] | Hepatotoxicity (granulomatous hepatitis) [5] | Hepatotoxicity (malignant tumour) [6] | Hepatotoxicity (moderate) [7] | Hepatotoxicity (choleostasis) [8] | Hepatotoxicity (association with vascular disease) [9] | Hepatotoxicity (acute) [10] | Hepatotoxicity (steatosis) [11] | Hepatotoxicity (chronic liver disease) [12] | Hepatotoxicity (benign tumour) [13] | Hepatotoxicity (moderate) [14] | Hepatotoxicity (comment) [17] | Hepatotoxicity (time to onset) [18] | Hepatotoxicity (mechanism) [16] | also measured
1 | O=C1CN2Cc3c(ccc(Cl)c3Cl)N=C2N1 [ANAGRELIDE] | 0% | 0 | 0 | 0 | 0 | 0 | 1 | 1 | 0 | 1 | 0 | 0 | 0 | 0.2% |  |  |  | Hepatotoxicity (successful reintroduction) [15]: yes
2 | CN1CCN(C(c2ccccc2)c2ccccc2)CC1 [CYCLIZINE] | 0% | 0 | 0 | 0 | 0 | 0 | 0 | 0 | 0 | 1 | 0 | 0 | 0 | 0% |  |  |  | Hepatotoxicity (successful reintroduction) [15]: yes
3 | CC(C(=O)Nc1cc(-c2ccccc2)nn1-c1ccccc1)N(C)C (stereo not given) [DIFENAMIZOLE] | 0% | 0 | 1 | 1 | 0 | 0 | 0 | 0 | 0 | 1 | 0 | 0 | 0 | 0% |  |  |  | Hepatotoxicity (successful reintroduction) [15]: yes
4 | Nc1ccc(S(=O)(=O)Nc2ncccn2)cc1 [SULFADIAZINE] |  | 0 |  |  |  | 0 | 2 |  | 0 | 8 | 0 | 0 | 0 |  | CHOLESTASE_PROLONGEE | 1 week - 2 months |  | Hepatotoxicity (acute) ([1]; Liver): 0%; Hepatotoxicity (cytolytic) ([3]; Liver): 3; Hepatotoxicity (severe hepatitis) ([4]; Liver): 1; Hepatotoxicity (granulomatous hepatitis) ([5]; Liver): 0; Hepatotoxicity (mechanism) ([16]; Liver): Allergic, Reactive metabolite; Hepatotoxicity (choleostasis) ([8]; Liver): 1; Hepatotoxicity (moderate) ([14]; Liver): 2.7%
5 | Cc1noc(NS(=O)(=O)c2ccc(N)cc2)c1C [SULFISOXAZOLE] |  | 0 | 1 |  | 0 | 0 | 0 | 2 | 0 | 4 | 0 | 0 | 0 |  | CHOLANGITE RC/COTRIMOXAZOLE | 2 days - 6 days | Allergic | Hepatotoxicity (acute) ([1]; Liver): 0%; Hepatotoxicity (severe hepatitis) ([4]; Liver): 1; Hepatotoxicity (moderate) ([14]; Liver): 0%
6 | CC(S)C(=O)NCC(=O)O (stereo not given) [TIOPRONIN] | 2.1% | 0 | 1 | 0 | 0 | 0 | 1 | 8 | 0 | 10 | 1 | 3 | 0 | 0% | CHOLESTASE_PROLONGEE #CBP | 19 days - 2 years | Allergic | 
7 | Cc1cccc(C)c1NC(=O)C(C)N (stereo not given) [TOCAINIDE] | 0% | 0 | 5 | 0 | 1 | 0 | 2 | 4 | 0 | 6 | 1 | 0 | 0 | 1.7% | AC_ANTI-N/-ML | 1 month - 2 months | Allergic | 
8 | CC1=C(/C=C/C(C)=C/C=C/C(C)=C/C(=O)O)C(C)(C)CCC1 [TRETINOIN] | 16.7% | 0 | 3 | 2 | 0 | 0 | 26 | 4 | 0 | 10 | 0 | 0 | 0 | 85% | CHOLANGITE | 10 days - 38 days | Dose-dependant | 
9 | CC(CN(C)C)CN1c2ccccc2CCc2ccccc21 (stereo not given) [TRIMIPRAMINE] | 0% | 0 | 1 | 0 | 0 | 0 | 2 | 0 | 0 | 2 | 0 | 0 | 0 | 0% | RC/DESIPRAMINE/CYAMEMAZINE | 2 weeks - 3 weeks | Dose-dependant | 
10 | Cc1c(C)c2c(c(C)c1O)CCC(C)(COc1ccc(CC3SC(=O)NC3=O)cc1)O2 (stereo not given) [TROGLITAZONE] | 5% | 0 | 27 | 21 | 1 | 0 | 18 | 4 | 0 | 36 | 2 | 1 | 0 | 5.8% | CHOLESTASE_PROLONGEE | 3 days - 2.3 years | Mitochondrial toxicity | 
11 | GEMTUZUMAB OZOGAMICIN | 38.3% | 0 | 10 | 1 | 0 | 0 | 7 | 2 | 19 | 11 | 0 | 0 | 0 | 47.8% | MVO | 2 days - 6 months | Dose-dependant | 
12 | GOLD | 0.8% | 0 | 7 | 5 | 1 | 0 | 22 | 44 | 0 | 52 | 0 | 1 | 0 | 40% | AC_ANTI-ADN/-ML/-N HLA-DR3 PERICHOLANGITE | 1 week - 5 years | Allergic, Dose-dependant | 
13 | INTERFERON ALFA | 0% | 1 | 2 | 1 | 0 | 0 | 21 | 1 | 0 | 2 | 3 | 0 | 0 | 58% | AGGRAVATION_HEPATITE_AUTOIMMUNE/B/DELTA AC_ANTI-ML/LKM/CH | 8 days - 8 months | Dose-dependant | 

Reference: ChEMBL document CHEMBL3137667, “[Drug-induced liver injury; fourteenth updated edition of the bibliographic database of liver injuries and related drugs]” (Gastroenterol Clin Biol, 2004)
